Laboratory results taken from the NIST ThermoML archive (doi:10.1021/acs.jced.6b00178).

CCCCn1cc[n+](C)c1.F[P-](F)(F)(F)(F)F [1-butyl-3-methylimidazolium hexafluorophosphate]
100 kPa
Details	mass density [kg/m3]	viscosity [mPa·s]
283.15 K, Metastable liquid, Concentric cylinders viscometry	–	794.33
283.15 K, Metastable liquid, Vibrating tube method	1379.9	–
288.15 K, Concentric cylinders viscometry, Liquid	–	557.27
288.15 K, Vibrating tube method, Liquid	1376.5	–
293.15 K, Concentric cylinders viscometry, Liquid	–	393.86
293.15 K, Vibrating tube method, Liquid	1372	–
298.15 K, Concentric cylinders viscometry, Liquid	–	285.02
298.15 K, Vibrating tube method, Liquid	1367.6	–
303.15 K, Concentric cylinders viscometry, Liquid	–	210.93
303.15 K, Vibrating tube method, Liquid	1363.4	–
308.15 K, Concentric cylinders viscometry, Liquid	–	159.46
308.15 K, Vibrating tube method, Liquid	1359.2	–
313.15 K, Concentric cylinders viscometry, Liquid	–	122.78
313.15 K, Vibrating tube method, Liquid	1355.1	–
318.15 K, Concentric cylinders viscometry, Liquid	–	96.28
318.15 K, Vibrating tube method, Liquid	1351	–
323.15 K, Concentric cylinders viscometry, Liquid	–	76.72
323.15 K, Vibrating tube method, Liquid	1347	–
328.15 K, Concentric cylinders viscometry, Liquid	–	62.04
328.15 K, Vibrating tube method, Liquid	1342.9	–
333.15 K, Concentric cylinders viscometry, Liquid	–	50.85
333.15 K, Vibrating tube method, Liquid	1338.9	–
338.15 K, Concentric cylinders viscometry, Liquid	–	42.2
338.15 K, Vibrating tube method, Liquid	1334.9	–
343.15 K, Concentric cylinders viscometry, Liquid	–	35.43
343.15 K, Vibrating tube method, Liquid	1330.9	–
348.15 K, Concentric cylinders viscometry, Liquid	–	30.04
348.15 K, Vibrating tube method, Liquid	1326.9	–
353.15 K, Concentric cylinders viscometry, Liquid	–	25.72
353.15 K, Vibrating tube method, Liquid	1323	–
358.15 K, Concentric cylinders viscometry, Liquid	–	22.22
358.15 K, Vibrating tube method, Liquid	1319	–
363.15 K, Concentric cylinders viscometry, Liquid	–	19.36
363.15 K, Vibrating tube method, Liquid	1315.2	–

CCCCn1cc[n+](C)c1.F[B-](F)(F)F [1-butyl-3-methylimidazolium tetrafluoroborate]
100 kPa, Liquid
Details	mass density, Vibrating tube method [kg/m3]	viscosity, Concentric cylinders viscometry [mPa·s]
283.15 K	1212.5	264.99
288.15 K	1208.8	192.43
293.15 K	1205.2	143.08
298.15 K	1201.6	108.74
303.15 K	1198	84.28
308.15 K	1194.5	66.52
313.15 K	1190.9	53.37
318.15 K	1187.4	43.47
323.15 K	1184	35.89
328.15 K	1180.5	30.01
333.15 K	1177	25.38
338.15 K	1173.6	21.68
343.15 K	1170.2	18.7
348.15 K	1166.8	16.26
353.15 K	1163.4	14.26
358.15 K	1160.1	12.59
363.15 K	1156.8	11.2

CCCCn1cc[n+](C)c1.N#C[S-] [1-butyl-3-methylimidazolium thiocyanate]
100 kPa, Liquid
Details	mass density, Vibrating tube method [kg/m3]	viscosity, Concentric cylinders viscometry [mPa·s]
283.15 K	1079.2	139.54
288.15 K	1076.2	104.51
293.15 K	1073.2	82.91
298.15 K	1070.2	62.63
303.15 K	1067.2	49.94
308.15 K	1064.2	40.48
313.15 K	1061.3	34.08
318.15 K	1058.4	27.8
323.15 K	1055.5	23.49
328.15 K	1052.6	20.06
333.15 K	1049.8	17.58
338.15 K	1047	15.08
343.15 K	1044.1	13.24
348.15 K	1041.4	11.71
353.15 K	1038.6	10.67
358.15 K	1035.8	9.355
363.15 K	1033.1	8.436

CCCCn1cc[n+](C)c1.O=S(=O)([O-])C(F)(F)F [1-butyl-3-methylimidazolium trifluoromethanesulfonate]
100 kPa
Details	mass density [kg/m3]	viscosity [mPa·s]
283.15 K, Metastable liquid, Concentric cylinders viscometry	–	225.61
283.15 K, Metastable liquid, Vibrating tube method	1308.4	–
288.15 K, Metastable liquid, Concentric cylinders viscometry	–	168.05
288.15 K, Metastable liquid, Vibrating tube method	1304.3	–
293.15 K, Concentric cylinders viscometry, Liquid	–	128.51
293.15 K, Vibrating tube method, Liquid	1300.3	–
298.15 K, Concentric cylinders viscometry, Liquid	–	99.14
298.15 K, Vibrating tube method, Liquid	1296.3	–
303.15 K, Concentric cylinders viscometry, Liquid	–	78.26
303.15 K, Vibrating tube method, Liquid	1292.3	–
308.15 K, Concentric cylinders viscometry, Liquid	–	62.76
308.15 K, Vibrating tube method, Liquid	1288.4	–
313.15 K, Concentric cylinders viscometry, Liquid	–	51.33
313.15 K, Vibrating tube method, Liquid	1284.5	–
318.15 K, Concentric cylinders viscometry, Liquid	–	42.1
318.15 K, Vibrating tube method, Liquid	1280.6	–
323.15 K, Concentric cylinders viscometry, Liquid	–	35.13
323.15 K, Vibrating tube method, Liquid	1276.7	–
328.15 K, Concentric cylinders viscometry, Liquid	–	29.63
328.15 K, Vibrating tube method, Liquid	1272.8	–
333.15 K, Concentric cylinders viscometry, Liquid	–	25.5
333.15 K, Vibrating tube method, Liquid	1268.9	–
338.15 K, Concentric cylinders viscometry, Liquid	–	21.72
338.15 K, Vibrating tube method, Liquid	1265.1	–
343.15 K, Concentric cylinders viscometry, Liquid	–	18.84
343.15 K, Vibrating tube method, Liquid	1261.3	–
348.15 K, Concentric cylinders viscometry, Liquid	–	16.47
348.15 K, Vibrating tube method, Liquid	1257.5	–
353.15 K, Concentric cylinders viscometry, Liquid	–	14.83
353.15 K, Vibrating tube method, Liquid	1253.7	–
358.15 K, Concentric cylinders viscometry, Liquid	–	12.86
358.15 K, Vibrating tube method, Liquid	1249.9	–
363.15 K, Concentric cylinders viscometry, Liquid	–	11.48
363.15 K, Vibrating tube method, Liquid	1246.2	–
